# Assay results taken from patent publication EP0481320A1, “Novel cyclobutane derivatives” (NIPPON KAYAKU KABUSHIKI KAISHA, priority 1990, dated 1992).
# Tested on: herpes simplex 1 virus (HSV-1)
# Assay: Plaque reduction test of antiviral activity in Vero cells
# Type: cell-based
# Conditions: Vero cells infected with 100-150 PFU; agar overlay with test compound; 37°C for 72 hours; plaque count
# Method: Antiviral activity against herpes simplex 1 virus (HSV-1), which is a DNA virus, was tested by the following method. Vero cells (originating from kidney cells of African Green Monkey) spread in a monolayer onto 6-wells multiplate were infected with 100-150 PFU (Plaque Forming Units) of the virus. After a 1-hour adsorption period at 37°C, an agar medium (Eagle's minimum essential medium containing 1.5% agar) containing respective concentrations of the test compound (obtained in Example 4) was overlaid thereonto, and cultured in a 5% (V/V) carbon dioxide incubator at 37°C for 72 hours. The number of plaques formed was counted, from which the 50% inhibition concentration (IC₅₀) was determined.
row,SMILES,IC₅₀ (µg/ml) (HSV-1)
1,"CC(O)C1C(CO)CC1n1cnc2c(=O)[nH]c(N)nc21 (single isomer, unassigned) [4-2, 9-[(1β,2α,3β)-2-(1-hydroxyethyl)-3-hydroxymethyl-1-cyclobutyl]guanine-(2)]",0.163 µg/mL
2,"CC(O)C1C(CO)CC1n1cnc2c(=O)[nH]c(N)nc21 (single isomer, unassigned) [4-1, 9-[(1β,2α,3β)-2-(1-hydroxyethyl)-3-hydroxymethyl-1-cyclobutyl]guanine-(1)]",45.2 µg/mL
